From ChEMBL document CHEMBL1129361, “Modulators of leukotriene biosynthesis and receptor activation” (J Med Chem, 1996)
Active and inactive are the calls of the source. The rule behind the calls is not given here.

Legend:
Cavia porcellus [1] = experiment: Compound was tested for in vivo inhibition against gp AA bronchospasm.; assay type: functional; settings: Bronchiole
RBL-1 = experiment: Compound was tested for in vitro inhibition against broken RBL-1.; assay type: functional; settings: Rattus norvegicus
Homo sapiens [2] = organism: Homo sapiens; experiment: Compound was tested for in vitro inhibition against human PMNL.; assay type: functional
Mus musculus [3] = experiment: Compound was tested for in vivo inhibition against mouse AA ear edema.; assay type: functional
[4] = phase 1 oral half life at a dose 200 mg.; assay type: ADME, organism-based; settings: human, in vivo
[5] = (§1) Compound was tested for in vivo inhibition against gp antigen bronchospasm.; assay type: functional; settings: Cavia porcellus, Bronchiole
Rattus norvegicus [6] = experiment: Compound was tested for in vivo inhibition against rat peritoneal anaphylaxis.; assay type: functional
Homo sapiens [7] = organism: Homo sapiens; experiment: Compound was tested for in vitro inhibition against human whole blood.; assay type: functional
Cavia porcellus [8] = experiment: Compound was tested in vivo inhibitory activity against LTB4 induced neutropenia in guinea pig.(orally); assay type: functional; settings: po
Homo sapiens [9] = organism: Homo sapiens; experiment: Compound was tested in vitro inhibitory activity against human neutrophil degranulation.; assay type: functional
Cavia porcellus [10] = experiment: Compound was tested in vivo inhibitory activity against LTB4 induced neutrophil influx in guinea pig(orally); assay type: functional; settings: po
Cavia porcellus [11] = experiment: Compound was tested in vivo inhibitory activity against LTB4 induced bronchoconstriction (orally); assay type: functional; settings: po
Cavia porcellus [12] = experiment: Compound was tested in vivo inhibitory activity against LTB4 induced bronchoconstriction (intravenous); assay type: functional
Homo sapiens [13] = experiment: Compound was tested for fold shift in LTD4 dose response curve following 1 g oral dose; assay type: functional
[14] = target: T1, Cysteinyl leukotriene receptor (Homo sapiens, UniProt Q9Y271+Q9NS75); experiment: Binding affinity against Cysteinyl leukotriene D4 receptor; assay type: protein assay
T1 sequence (Q9Y271 whole entry): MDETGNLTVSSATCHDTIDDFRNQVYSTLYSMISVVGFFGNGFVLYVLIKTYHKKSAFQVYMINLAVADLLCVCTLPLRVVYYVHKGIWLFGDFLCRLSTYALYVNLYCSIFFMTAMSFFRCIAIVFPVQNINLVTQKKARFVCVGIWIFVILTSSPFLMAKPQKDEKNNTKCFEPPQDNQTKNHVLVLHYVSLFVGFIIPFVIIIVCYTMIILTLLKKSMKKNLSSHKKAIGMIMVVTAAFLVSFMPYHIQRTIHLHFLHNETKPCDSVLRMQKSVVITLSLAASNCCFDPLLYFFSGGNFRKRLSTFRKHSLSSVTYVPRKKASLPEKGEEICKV
T1 sequence (Q9NS75 whole entry): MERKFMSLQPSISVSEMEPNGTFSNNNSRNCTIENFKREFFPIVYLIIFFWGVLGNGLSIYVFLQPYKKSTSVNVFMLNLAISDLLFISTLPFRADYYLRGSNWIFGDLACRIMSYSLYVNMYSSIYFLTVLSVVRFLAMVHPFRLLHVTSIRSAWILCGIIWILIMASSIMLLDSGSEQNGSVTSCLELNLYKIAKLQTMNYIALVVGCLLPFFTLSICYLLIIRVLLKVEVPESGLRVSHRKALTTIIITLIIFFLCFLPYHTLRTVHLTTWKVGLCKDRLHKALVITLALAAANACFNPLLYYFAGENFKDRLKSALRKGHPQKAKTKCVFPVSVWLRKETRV

Homo sapiens [15] = experiment: Compound was tested for inhibition of LTD4 bronchoconstriction following 4 mg/kg oral dose; active; assay type: functional, organism-based; design: dose 4 mg/kg; settings: Lung
Cavia porcellus [16] = experiment: Compound was tested in vivo inhibitory activity against AA induced ear edema; assay type: functional
Mus musculus [17] = experiment: Compound was tested in vivo inhibitory activity against LTB4 induced mouse peritonitis (orally); assay type: functional; settings: po
Homo sapiens [18] = organism: Homo sapiens; experiment: Compound was tested in vitro for inhibitory activity in LTB4 induced neutrophil degranulation; assay type: functional
Cavia porcellus [19] = experiment: compound was tested in vivo for LTB4 induced neutrophil chemotaxis in guinea pig(orally) at duration 24 h; assay type: functional; settings: po
[20] = target: Leukotriene B4 receptor 1 (Homo sapiens, UniProt Q15722); experiment: Compound was tested for inhibitory activity against human neutrophil LTB4 receptor binding
Chain of Leukotriene B4 receptor 1 (Q15722 whole entry): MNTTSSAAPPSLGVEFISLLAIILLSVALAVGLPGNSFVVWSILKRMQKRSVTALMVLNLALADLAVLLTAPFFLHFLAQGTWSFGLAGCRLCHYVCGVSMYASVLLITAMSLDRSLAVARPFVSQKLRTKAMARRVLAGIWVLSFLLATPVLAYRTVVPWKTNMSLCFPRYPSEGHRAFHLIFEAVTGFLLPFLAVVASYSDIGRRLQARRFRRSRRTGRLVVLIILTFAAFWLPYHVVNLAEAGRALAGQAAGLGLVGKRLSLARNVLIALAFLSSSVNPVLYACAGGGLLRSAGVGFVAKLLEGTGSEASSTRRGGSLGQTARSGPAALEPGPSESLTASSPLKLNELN

Homo sapiens [21] = organism: Homo sapiens; experiment: Compound was tested in vitro for inhibitory activity in LTB4 induced chemotaxis; assay type: functional, organism-based
Cavia porcellus [22] = experiment: Compound was tested in vivo inhibitory activity against PMA induced ear edema in guinea pig (orally); assay type: functional; settings: po
Homo sapiens [23] = experiment: LTD4 induced broncho constriction (shift in dose response curve 2 hr following 800 mg oral dose); assay type: functional
Cavia porcellus [24] = experiment: Compound was tested in vivo for LTB4 induced neutrophil chemotaxis in guinea pig.(orally) at duration 21 h; assay type: functional; settings: po
Homo sapiens [25] = organism: Homo sapiens; experiment: Compound was tested in vitro for inhibitory activity in LTB4 induced neutrophil degranulation.; assay type: functional, organism-based
Homo sapiens [26] = experiment: Compound was shown 8 fold shift in LTD4 dose response curve 2 hours after 250 mg oral dose.; assay type: functional
Cavia porcellus [27] = organism: Cavia porcellus; experiment: Compound was tested for LTD4 induced guinea pig trachea contraction.; assay type: functional
Homo sapiens [28] = experiment: Fold shift in LTD4 dose response curve following 250 mg oral dose.; assay type: functional
[29] = target: T2, Cysteinyl leukotriene receptor 1 (Homo sapiens, UniProt Q9Y271); experiment: Compound was tested for inhibitory activity against LTD4 (leukotriene).; assay type: functional
T2 sequence (Q9Y271 whole entry): T1 sequence (Q9Y271 whole entry)

Mus musculus [30] = organism: Mus musculus; experiment: Compound was tested for in vitro inhibition against murine macrophage; assay type: functional
RBL-2H3 = experiment: Compound was tested for in vitro inhibition against 5-LO translocation in rat basophilic leukemia cells (RBL-2H3); assay type: functional, cell-based
Rattus norvegicus [31] = organism: Rattus norvegicus; experiment: Compound was tested for in vitro inhibition against rat blood; assay type: functional
Phosphodiesterase 3 = Phosphodiesterase 3 (Homo sapiens, UniProt Q14432+Q13370); experiment: Inhibition of Phosphodiesterase 3; assay type: protein assay
Phosphodiesterase 4 = Phosphodiesterase 4 (Homo sapiens, UniProt P27815+Q08499+Q07343+Q08493); experiment: Inhibition of Phosphodiesterase 4; assay type: protein assay
Homo sapiens [32] = organism: Homo sapiens; experiment: Compound was tested for in vitro inhibition against human PMNL; assay type: functional
Cavia porcellus [33] = organism: Cavia porcellus; experiment: Compound was tested for in vitro inhibition against broken guinea pig peritoneal exudate cells; assay type: functional
Cavia porcellus [34] = experiment: Compound was tested for in vivo inhibition against antigen bronchospasm; assay type: functional; settings: Bronchiole
[35] = phase 1 oral half life at a dose 50 mg - 750 mg.; assay type: ADME, organism-based; settings: human, in vivo
Rattus norvegicus [36] = organism: Rattus norvegicus; experiment: Compound was tested for in vitro inhibition against Rat PMNL; assay type: functional
Cavia porcellus [37] = experiment: as §1; assay type: functional; settings: Bronchiole
Rattus norvegicus [38] = experiment: Compound was tested for in vivo inhibition against rat zymosan induced exudate.; assay type: functional
Rattus norvegicus [39] = experiment: Compound was tested for in vivo inhibition on rat PMNL.; assay type: functional
Homo sapiens [40] = organism: Homo sapiens; experiment: Compound was tested for in vitro inhibition on human PMNL.; assay type: functional
[41] = phase 1 oral half life at a dose 400 mg.; assay type: ADME, organism-based; settings: human, in vivo
Cavia porcellus [42] = experiment: Compound was tested for in vivo inhibition on gp antigen bronchospasm.; assay type: functional; settings: Bronchiole

C[C@H](C#Cc1ccc(Oc2ccc(F)cc2)o1)N(O)C(N)=O
ED50 (Cavia porcellus [1]): 2 mg/kg | IC50 (RBL-1): 0.054 µM | IC50 (Homo sapiens [2]): 0.025 µM | ED50 (Mus musculus [3]): 3 mg/kg | half-life [4]: 7 h | ED50 [5]: 2.5 mg/kg | ED50 (Rattus norvegicus [6]): 1.5 mg/kg | IC50 (Homo sapiens [7]): 0.08 µM

COc1ccc(/C=C/CCCCOc2cccc(OCCCCC(=O)O)c2CCC(=O)O)cc1
ED50 (Cavia porcellus [8]): 25.6 mg/kg | IC50 (Homo sapiens [9]): 1.6 µM | ED50 (Cavia porcellus [10]): 5.3 mg/kg

CCCc1c(OCCCOc2cc(O)c(C(C)=O)cc2CC)ccc2c1OC(C(=O)O)CC2 (stereo not drawn)
ED50 (Cavia porcellus [11]): 0.5 mg/kg | ED50 (Cavia porcellus [12]): 0.23 mg/kg

CCCc1c(OCCCSc2ccc([C@@H](O)[C@H](C)CC(=O)O)cc2)ccc(C(C)=O)c1O [L-649923]
Activity (Homo sapiens [13]): 3.8 | Ki [14]: 0.4 µM

O=C(O)CCS[C@@H](CC(=O)O)c1ccccc1CCCCCCCCc1ccccc1
Activity (Homo sapiens [15]): Active | Ki [14]: 0.06 µM

COc1ccc(CCCCCCCCOc2ccc(CSCc3cccc(C(=O)O)c3)nc2/C=C/C(=O)O)cc1
ED50 (Cavia porcellus [16]): 0.58 mg ear-1 | ED50 (Mus musculus [17]): 7.1 mg/kg

CCCc1c(OCCCOc2ccc(C(=O)NC)c(OC)c2CC2CC2)ccc2c1O[C@H](CCC(=O)O)CC2
IC50 (Homo sapiens [18]): 0.019 µM | ED50 (Cavia porcellus [19]): 0.07 mg/kg | IC50 [20]: 0.0013 µM | IC50 (Homo sapiens [21]): 0.032 µM | ED50 (Cavia porcellus [22]): < 2.5 mg/kg

c1ccc(Cc2nn[nH]n2)c(COc2ccc(OCc3ccc4ccccc4n3)cc2)c1 [RG-12525]
Ki [14]: 0.003 µM | Activity (Homo sapiens [23]): 7.5

CCCc1c(OCCCOc2ccc(C(=O)NC)c(OC)c2CC2CC2)ccc2c1OC(CCC(=O)O)CC2 (stereo not drawn)
ED50 (Cavia porcellus [24]): 0.09 mg/kg | IC50 [20]: 0.0015 µM | IC50 (Homo sapiens [21]): 0.038 µM | IC50 (Homo sapiens [25]): 0.029 µM

O=C(O)CC[C@@H](/C=C\Cc1ccc(OCCCCOc2ccccc2)cc1)Sc1ccc(C(=O)O)cc1
Activity (Homo sapiens [26]): 8 | pKB (Cavia porcellus [27]): 8.4

O=C(O)c1ccccc1Nc1cccc(OCc2ccc3ccccc3n2)c1 [SR-2640]
Activity (Homo sapiens [28]): <2 | IC50 [29]: 0.023 µM

C[C@H](C(=O)O)c1ccc2ccc(OCc3ccc4ccccc4n3)cc2c1.NC(CO)(CO)CO
IC50 (Mus musculus [30]): 0.16 µM | IC50 (RBL-2H3): 0.053 µM | IC50 (Rattus norvegicus [31]): 8.1 µM | IC50 (Phosphodiesterase 3): 15.8 µM | IC50 (Phosphodiesterase 4): 8.9 µM | IC50 (Homo sapiens [32]): 1.2 µM | IC50 (Cavia porcellus [33]): 5.7 µM | ED50 (Cavia porcellus [34]): 7.3 mg/kg

O=C(O)[C@@H](c1ccc(OCc2ccc3ccccc3n2)cc1)C1CCCC1 [VELIFLAPON]
half-life [35]: 4 h | IC50 (Homo sapiens [2]): 0.22 µM | IC50 (Rattus norvegicus [36]): 0.026 µM | ED50 (Mus musculus [3]): 49 mg/kg | ED50 (Cavia porcellus [37]): 6.3 mg/kg | ED50 (Rattus norvegicus [38]): 8 mg/kg | IC50 (Homo sapiens [7]): 11.6 µM

CC(=O)N(O)C/C=C/c1cccc(Oc2ccccc2)c1
ED50 (Rattus norvegicus [39]): 54 mg/kg | IC50 (Homo sapiens [40]): 0.04 µM | half-life [41]: 2 h | ED50 (Cavia porcellus [42]): 10 mg/kg
